From patent US11339144B2 (Navitor Pharmaceuticals, Inc., priority 2017, dated 2022)
One block for each molecule: values may come before it.

Key:
[1] = molecular target: HA-GST-Rheb (GTP-γ-S loaded) activating mTORC1 (Homo sapiens (Human), UniProt Q15382); assay: Rheb-dependent in vitro kinase assay (Rheb-IVK; LanthaScreen or Western readout); assay type: biochemical; details: Rheb-dependent in vitro kinase assay; read-out: IVK IC50
Rheb = Rheb (Homo sapiens (Human), UniProt Q15382); assay: Affinity Selection Mass Spectrometry (ASMS); assay type: binding; details: affinity (R3/R0) in Affinity Selection Mass Spectrometry assay
Chain of Rheb (Q15382 1-169 limits assumed): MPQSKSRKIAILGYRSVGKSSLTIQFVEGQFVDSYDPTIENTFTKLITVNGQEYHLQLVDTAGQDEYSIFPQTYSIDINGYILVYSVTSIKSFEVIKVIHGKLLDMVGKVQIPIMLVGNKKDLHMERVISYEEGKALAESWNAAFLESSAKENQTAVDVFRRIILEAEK
Method in brief: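 Affinity selection used 2 μM compound with 60 μM Rheb and 180 μM GDP for 30 min at room temperature. After 10 kDa ultrafiltration washes, protein was denatured in MeCN and bound compound quantified by C18 UPLC with Q-TOF MS, against a no-protein control.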

Chain of HA-GST-Rheb (GTP-γ-S loaded) activating mTORC1 (Q15382 1-181): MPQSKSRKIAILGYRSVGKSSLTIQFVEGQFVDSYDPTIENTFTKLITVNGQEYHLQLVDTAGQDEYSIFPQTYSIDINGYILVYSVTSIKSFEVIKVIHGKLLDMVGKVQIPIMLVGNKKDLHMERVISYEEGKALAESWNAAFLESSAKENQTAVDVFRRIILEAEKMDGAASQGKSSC

IC50 [1]: 100 to 300 µM
Molecule: OCc1nc2cc(Cl)c(SCc3ccc(Cl)cc3Cl)cc2[nH]1 [I-361, (5-chloro-6-(2,4-dichlorobenzylthio)-1H-benzo[d]imidazol-2-yl)methanol]
ASMS (R3/R0) (Rheb): B (an affinity (R3/R0) between 100% and 20%)

IC50 [1]: 100 to 300 µM
Molecule: O=C(O)c1ccc(CCn2c(-c3c[nH]c4ncccc34)nc3cc(Cl)c(Cl)cc32)cc1 [I-335, 4-(2-(5,6-dichloro-2-(1H-pyrrolo[2,3-b]pyridin-3-yl)-1H-benzo[d]imidazol-1-yl)ethyl)benzoic acid]
ASMS (R3/R0) (Rheb): B (an affinity (R3/R0) between 100% and 20%)

IC50 [1]: 100 to 300 µM | ASMS (R3/R0) (Rheb): A (an affinity (R3/R0)>100%)
Molecule: CN1CCN(c2ccc(-c3nc4cc(Cl)c(Cl)cc4[nH]3)cc2)CC1 [I-366, 5,6-dichloro-2-(4-(4-methylpiperazin-1-yl)phenyl)-1H-benzo[d]imidazole]

IC50 [1]: 10 to 100 µM
Molecule: O=C(O)Cn1c(-c2c[nH]c3ncccc23)nc2cc(Cl)c(Cl)cc21 [I-334, 2-(5,6-dichloro-2-(1H-pyrrolo[2,3-b]pyridin-3-yl)-1H-benzo[d]imidazol-1-yl)acetic acid]
ASMS (R3/R0) (Rheb): B (an affinity (R3/R0) between 100% and 20%)

IC50 [1]: > 3 µM | ASMS (R3/R0) (Rheb): C (an affinity (R3/R0)<20%)
Molecule: Cn1c(CO)nc2cc(OCc3ccccc3)c(Cl)cc21 [I-425, (5-(benzyloxy)-6-chloro-1-methyl-1H-benzo[d]imidazol-2-yl)methanol]

IC50 [1]: > 100 µM
Molecule: CC(C)(C)OC(=O)NCc1nc2cc(OCc3ccc(Cl)cc3)c(Cl)c(Cl)c2[nH]1 [I-350]
ASMS (R3/R0) (Rheb): B (an affinity (R3/R0) between 100% and 20%)

IC50 [1]: > 100 µM
Molecule: Clc1cc2nc(-c3cccnc3)[nH]c2c(Cl)c1Cl [I-355]
ASMS (R3/R0) (Rheb): B (an affinity (R3/R0) between 100% and 20%)

IC50 [1]: 10 to 100 µM | ASMS (R3/R0) (Rheb): C (an affinity (R3/R0)<20%)
Molecule: OCCc1cc2c(Oc3ccccc3)c(Cl)ccc2[nH]1 [I-261, 2-(5-chloro-4-phenoxy-1H-indol-2-yl)ethanol]

IC50 [1]: 100 to 300 µM | ASMS (R3/R0) (Rheb): C (an affinity (R3/R0)<20%)
Molecule: Clc1cc2nc(-c3ncco3)n(Cc3ccc(-c4nn[nH]n4)cc3)c2cc1Cl [I-489, 2-(1-(4-(2H-tetrazol-5-yl)benzyl)-5,6-dichloro-1H-benzo[d]imidazol-2-yl)oxazole]

IC50 [1]: > 100 µM
Molecule: CN1CCC[C@H]1CNC(=O)c1ccc(-c2nc3cc(Cl)c(Cl)cc3[nH]2)cc1 [I-336]
ASMS (R3/R0) (Rheb): B (an affinity (R3/R0) between 100% and 20%)

IC50 [1]: 10 to 100 µM | ASMS (R3/R0) (Rheb): C (an affinity (R3/R0)<20%)
Molecule: Clc1ccc2nc(-c3ncco3)n(Cc3ccc(-c4nnn[nH]4)cc3)c2c1 [I-411, 2-(1-(4-(1H-tetrazol-5-yl)benzyl)-6-chloro-1H-benzo[d]imidazol-2-yl)oxazole]

IC50 [1]: > 100 µM | ASMS (R3/R0) (Rheb): C (an affinity (R3/R0)<20%)
Molecule: Cn1ccc2c(OC3CCNCC3)cccc21 [I-295]

IC50 [1]: 10 to 100 µM
Molecule: OCc1nc2cc(OCc3ccc(Oc4ccccc4)cc3)c(Cl)c(Cl)c2[nH]1 [I-320, [6,7-dichloro-5-[(4-phenoxyphenyl)methoxy]-1H-benzimidazol-2-yl]methanol]
ASMS (R3/R0) (Rheb): B (an affinity (R3/R0) between 100% and 20%)

More lines, now with the values behind:

Molecule: Cc1c(-c2ccc(Cn3c(C(=O)O)cc4c(Sc5ccc(Cl)cc5Cl)cc(Cl)cc43)cc2)cnn1C [I-77, 6-chloro-4-(2,4-dichlorophenylthio)-1-(4-(1,5-dimethyl-1H-pyrazol-4-yl)benzyl)-1H-indole-2-carboxylic acid]
IC50 [1]: < 10 µM | ASMS (R3/R0) (Rheb): B (an affinity (R3/R0) between 100% and 20%)

Molecule: CN1CCC(CNC(=O)c2cc3c(Sc4ccc(Cl)cc4Cl)cc(Cl)c(Cl)c3[nH]2)CC1 [I-35, 6,7-dichloro-4-(2,4-dichlorophenylthio)-N-((1-methylpiperidin-4-yl)methyl)-1H-indole-2-carboxamide]
IC50 [1]: < 10 µM | ASMS (R3/R0) (Rheb): A (an affinity (R3/R0)>100%)

Molecule: O=C(O)c1cc2cc(SCc3ccc(Cl)cc3)c(Cl)cc2[nH]1 [I-85, 6-chloro-5-(4-chlorobenzylthio)-1H-indole-2-carboxylic acid]
IC50 [1]: 10 to 100 µM | ASMS (R3/R0) (Rheb): B (an affinity (R3/R0) between 100% and 20%)

Molecule: CN(C)C(=O)c1ccc(Cn2c(C(=O)O)cc3c(Br)cc(SCC4CCCCC4)cc32)cc1 [I-24, 4-bromo-6-(cyclohexylmethylthio)-1-(4-(dimethylcarbamoyl)benzyl)-1H-indole-2-carboxylic acid]
IC50 [1]: < 10 µM | ASMS (R3/R0) (Rheb): B (an affinity (R3/R0) between 100% and 20%)

Molecule: CN1CCN(C(=O)c2ccc(Cn3c(C(=O)O)cc4c(Br)cc(Sc5ccc(Cl)c(Cl)c5)cc43)cc2)CC1 [I-52, 4-bromo-6-(3,4-dichlorophenylthio)-1-(4-(4-methylpiperazine-1-carbonyl)benzyl)-1H-indole-2-carboxylic acid]
IC50 [1]: 10 to 100 µM | ASMS (R3/R0) (Rheb): B (an affinity (R3/R0) between 100% and 20%)

Molecule: C[Si](C)(C)CC(O)c1cc2c(Oc3ccccc3)cc(Cl)cc2[nH]1 (stereo not shown) [I-159, 1-(6-chloro-4-phenoxy-1H-indol-2-yl)-2-(trimethylsilyl)ethanol]
IC50 [1]: 10 to 100 µM | ASMS (R3/R0) (Rheb): C (an affinity (R3/R0)<20%)

Molecule: OCc1cc2c(F)cc(Oc3ccccc3)cc2[nH]1 [I-249, (4-fluoro-6-phenoxy-1H-indol-2-yl)methanol]
IC50 [1]: 10 to 100 µM | ASMS (R3/R0) (Rheb): C (an affinity (R3/R0)<20%)

Molecule: Clc1ccc(Cl)c(Sc2cccc3[nH]ccc23)c1 [I-209, 4-(2,5-dichlorophenylthio)-1H-indole]
IC50 [1]: 10 to 100 µM | ASMS (R3/R0) (Rheb): B (an affinity (R3/R0) between 100% and 20%)

Molecule: O=C(O)c1cc2c(Sc3ccc(Br)cc3)cc(Cl)cc2[nH]1 [I-98, 4-(4-bromophenylthio)-6-chloro-1H-indole-2-carboxylic acid]
IC50 [1]: 10 to 100 µM | ASMS (R3/R0) (Rheb): B (an affinity (R3/R0) between 100% and 20%)

Molecule: O=C(O)c1cc2c(Sc3ccc(Cl)cc3)cc(Cl)c(Cl)c2[nH]1 [I-73, 6,7-dichloro-4-(4-chlorophenylthio)-1H-indole-2-carboxylic acid]
IC50 [1]: < 10 µM | ASMS (R3/R0) (Rheb): A (an affinity (R3/R0)>100%)

Molecule: O=C(NCc1ccccn1)c1cc2c(Sc3ccc(Cl)cc3)cc(Cl)cc2[nH]1 [I-149, 6-chloro-4-(4-chlorophenylthio)-N-(pyridin-2-ylmethyl)-1H-indole-2-carboxamide]
IC50 [1]: 10 to 100 µM | ASMS (R3/R0) (Rheb): B (an affinity (R3/R0) between 100% and 20%)

Molecule: OCc1cc2c(Sc3ccc(F)cc3)cc(Cl)cc2[nH]1 [I-153, (6-chloro-4-(4-fluorophenylthio)-1H-indol-2-yl)methanol]
IC50 [1]: 10 to 100 µM | ASMS (R3/R0) (Rheb): B (an affinity (R3/R0) between 100% and 20%)

Molecule: COc1ccc(Sc2cc(Cl)cc3[nH]c(CO)cc23)cc1OC [I-135]
IC50 [1]: > 100 µM | ASMS (R3/R0) (Rheb): B (an affinity (R3/R0) between 100% and 20%)

Molecule: OCc1cc2c(Br)cc(Sc3ccc(Cl)c(Cl)c3)cc2[nH]1 [I-133, (4-bromo-6-(3,4-dichlorophenylthio)-1H-indol-2-yl)methanol]
IC50 [1]: < 10 µM | ASMS (R3/R0) (Rheb): B (an affinity (R3/R0) between 100% and 20%)

Molecule: OCc1cc2c(Sc3ccc(OC(F)(F)F)cc3)cc(Cl)cc2[nH]1 [I-123, (6-chloro-4-(4-(trifluoromethoxy)phenylthio)-1H-indol-2-yl)methanol]
IC50 [1]: < 10 µM | ASMS (R3/R0) (Rheb): B (an affinity (R3/R0) between 100% and 20%)

Molecule: CN1CCCN(c2ccc(NC(=O)c3cc4c(Sc5ccc(Cl)cc5Cl)cc(Cl)cc4[nH]3)cc2F)CC1 [I-93, 6-chloro-4-(2,4-dichlorophenylthio)-N-(3-fluoro-4-(4-methyl-1,4-diazepan-1-yl)phenyl)-1H-indole-2-carboxamide]
IC50 [1]: < 10 µM | ASMS (R3/R0) (Rheb): A (an affinity (R3/R0)>100%)

Molecule: CN1CCN(c2ccc(NC(=O)c3cc4c(Br)cc(Sc5ccc(Cl)c(Cl)c5)cc4[nH]3)cc2)CC1 [I-96, 4-bromo-6-(3,4-dichlorophenylthio)-N-(4-(4-methylpiperazin-1-yl)phenyl)-1H-indole-2-carboxamide]
IC50 [1]: 10 to 100 µM | ASMS (R3/R0) (Rheb): A (an affinity (R3/R0)>100%)

Molecule: CN1CCN(c2cccc(NC(=O)c3cc4c(Sc5ccc(Cl)cc5Cl)cc(Cl)cc4[nH]3)c2)CC1 [I-121, 6-chloro-4-(2,4-dichlorophenylthio)-N-(3-(4-methylpiperazin-1-yl)phenyl)-1H-indole-2-carboxamide]
IC50 [1]: < 10 µM | ASMS (R3/R0) (Rheb): B (an affinity (R3/R0) between 100% and 20%)

Molecule: 4-((6-chloro-4-(3,4-dichlorophenoxy)-1H-indol-1-yl)methyl)benzoic acid [I-146]
IC50 [1]: < 10 µM | ASMS (R3/R0) (Rheb): B (an affinity (R3/R0) between 100% and 20%)

Molecule: CC(C)(C)OC(=O)c1ccc(Cn2ccc3c(Br)cc(Oc4ccccc4)cc32)cc1 [I-163]
IC50 [1]: > 100 µM | ASMS (R3/R0) (Rheb): C (an affinity (R3/R0)<20%)

Molecule: O=C(O)c1cc2c(Sc3ccc(Oc4ccc(Cl)cc4)cc3)cc(Cl)cc2[nH]1 [I-84, 6-chloro-4-(4-(4-chlorophenoxy)phenylthio)-1H-indole-2-carboxylic acid]
IC50 [1]: < 10 µM | ASMS (R3/R0) (Rheb): B (an affinity (R3/R0) between 100% and 20%)

Molecule: CN(C)C(=O)c1ccc(Cn2c(C(=O)O)cc3c(C4CC4)cc(Sc4ccc(Cl)c(Cl)c4)cc32)cc1 [I-10, 4-cyclopropyl-6-(3,4-dichlorophenylthio)-1-(4-(dimethylcarbamoyl)benzyl)-1H-indole-2-carboxylic acid]
IC50 [1]: < 10 µM | ASMS (R3/R0) (Rheb): A (an affinity (R3/R0)>100%)

Molecule: O=C(O)c1ccc(CCn2c(C(=O)O)cc3c(Br)cc(Oc4ccccc4)cc32)cc1 [I-36]
IC50 [1]: > 100 µM | ASMS (R3/R0) (Rheb): C (an affinity (R3/R0)<20%)

Molecule: CN(C)C(=O)c1ccc(Cn2c(C(=O)O)cc3cc(-c4ccccc4)c(Sc4ccc(Cl)c(Cl)c4)cc32)cc1 [I-2]
IC50 [1]: < 10 µM | ASMS (R3/R0) (Rheb): B (an affinity (R3/R0) between 100% and 20%)

Molecule: CN1CCN(C(=O)c2ccc(Cn3c(C(=O)O)cc4c(Br)cc(Oc5ccccc5)cc43)cc2)CC1 [I-68]
IC50 [1]: > 3 µM | ASMS (R3/R0) (Rheb): C (an affinity (R3/R0)<20%)
